Measured values from patent publication US8541428B2, “Heterocyclic derivatives, pharmaceutical compositions and methods of use thereof” (Technion Research and Development Foundation Ltd., priority 2006, dated 2013).
One block for each compound: values may come before it.

Tests used:
[1] = target: peripheral-type benzodiazepine receptor (PBR) (Homo sapiens, UniProt P30536); assay: PBR binding assay, [3H]PK 11195 radio-assay (competition with radioactive standard ligand); settings: for binding to PBR (in words): [3H]PK 11195 radio-assay
Method: Briefly, the assay utilizes radioactive standard ligand [^3H] PK 11195 (1-(2-chlorophenyl)-N-methyl-N-(1-methyl-propyl)-3-isoquinolinecarboxamide), and measures the ability of the compounds of the invention to compete with standard ligand in binding to PBR. Total radioactive binding was determined by measuring the radioactivity of the radioactive ligand-receptor complex, obtained in the reaction of radioactive standard with the PBR. Radioactive standard and the examined ligand were added to the PBR and after some incubation time the radioactivity of the resulting ligand-receptor complexes was measured with the help of […]. This radioactivity indicates the binding of the radioactive standard to PBR. […] For an easier interpretation of our results, the binding was expressed in percentage of radioactive ligand binding. The lower the number, the better the binding of the examined ligand to PBR. Western blot analysis can be used to see which components of the PBR-complex may be important for the efficacy of the new PBR ligands, according to methods described previously [Levin E et al. 2005; Kuznetsov V et al. 2005; Weisinger G et al. Biochemistiy 2004].

C6 glioma cell line [2] = assay: Apoptotic levels in C6 glioma cell line (control and IBP knockdown); format: cell-based, rat; settings: for increase of apoptotic levels: control cells; for apoptotic effects in IBP knockdown cell line: IBP knockdown cells, FGIN-1-27 10^-5M, ErPC 10^-4M
Source text: Cell death, including apoptosis. The Cell Death Detection ELISA^PLUS kit of Roche Molecular Biochemicals (Mannheim, Germany) was used to determine the effects on apoptosis by the new PBR ligands, in particular the one of the present description, according to methods described previously [Veenman L et al. 2005; Levin E et al. 2005]. Also, the Trypan blue method was applied in order to determine the cell viability after application of the new PBR ligands, according to methods described previously [Veenman L et al. 2005; Levin E et al. 2005]. Cell death including apoptosis of neural cells is induced by glutamate and Abeta, according to methods described previously [Michal Gaitner, M. Sc. thesis, 2004].

C6 glioma cell line [3] = assay: Mitochondrial membrane potential decrease in C6 glioma cell line (control and IBP knockdown); format: cell-based, rat; settings: 10^-4M
Method: Mitochondrial membrane potential and mitochondrial volume measurement. To see whether the new PBR ligand is able to prevent opening of the mitochondrial permeability transition pore to prevent apoptosis changes in the mitochondrial volume and potential are measured, as described previously [Maaser K, Br J Cancer 2001;85:1771-1780].

PBR-complex = PBR-complex (Homo sapiens, UniProt P30536); settings: displacement of [3H]Ro5 4864; cited from earlier work
[4] = modulation of PBR composition, seizures; cited from earlier work

Sequence of peripheral-type benzodiazepine receptor (PBR) (P30536 whole entry, species assumed): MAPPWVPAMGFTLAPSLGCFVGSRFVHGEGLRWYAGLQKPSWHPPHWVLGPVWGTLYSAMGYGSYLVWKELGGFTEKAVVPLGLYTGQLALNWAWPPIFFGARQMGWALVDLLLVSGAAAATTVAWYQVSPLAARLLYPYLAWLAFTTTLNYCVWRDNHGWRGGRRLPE
Sequence of PBR-complex (P30536 whole entry, one chain of several): as the sequence (P30536 whole entry, species assumed) above

Compound: CCN(CC)C(=O)C(C)(C)c1nc2ccccc2nc1-c1ccccc1 [Compound 5, N,N-Diethyl-2-(3-phenyl-quinoxalin-2-yl)-isobutyramide]
- binding to PBR (in words) [1]: best binding

Compound: CN(C)C(=O)Oc1nc(-c2ccccc2)nc2ccccc12 [Compound 9a, Dimethyl-carbamic acid 2-phenyl-quinazolin-4-yl ester]
- binding to PBR (in words) [1]: good binding properties

Compound: CCCCCCCC/C=C\CCCCCCCCCCCCOP(=O)([O-])OCC[N+](C)(C)C [ErPC]
- increase of apoptotic levels (C6 glioma cell line [2]; 10^-4M): 7-8 fold
- apoptotic effects in IBP knockdown cell line (C6 glioma cell line [2]): completely abolished
- effects on mitochondrial potential in IBP knockdown cell line (C6 glioma cell line [3]; IBP knockdown cell line (as 3.7)): completely abolished
- enhancement of mitochondrial membrane potential decrease (C6 glioma cell line [3]; control cells vs vehicle treated control cells): 6 fold

Compound: CCCCCCN(CCCCCC)C(=O)Cc1c(-c2ccc(F)cc2)[nH]c2ccccc12 [FGIN-1-27]
- increase of apoptotic levels (C6 glioma cell line [2]; 10^-5M): 2 fold
- apoptotic effects in IBP knockdown cell line (C6 glioma cell line [2]): completely abolished
- Ki (PBR-complex): 4.4 ± 0.1 nM

Compound: CCC(C)N(C)C(=O)c1cc2ccccc2c(-c2ccccc2Cl)n1 (centres unmarked) [PK 11195, 1-(2-chlorophenyl)-N-methyl-N-(1-methyl-propyl)-3-isoquinolinecarboxamide]
- effect on consequences of kainic acid injections [4]: prevented the effects of kainic acid injections

Now from value to compound:

- binding to PBR (in words) [1]: good binding properties
Compound: CC(C)N(C(=O)n1c(-c2ccccc2)nc2ccccc2c1=O)C(C)C [Compound 10b, 4-Oxo-2-phenyl-4H-quinazoline-3-carboxylic acid diisopropylamide]

- radioactive standard remained bound to PBR (percentage of radioactive ligand binding) ([1]; [3H]PK 11195, the lower the number, the better the binding): 14%
- binding to PBR (in words) [1]: good binding properties
Compound: CCN(CC)C(=O)Cc1nc(-c2ccccc2)nc2ccccc12 [Compound 12b, N,N-Diethyl-2-(2-phenyl-quinazolin-4-yl)-acetamide]

- binding to PBR (in words) [1]: good binding properties
Compound: CC(C)N(C(=O)Cc1nc(-c2ccccc2)nc2ccccc12)C(C)C [Compound 12c, N,N-Diisopropyl-2-(2-phenyl-quinazolin-4-yl)-acetamide]
